Patent US11649222B2, “Compounds” (UNIVERSITETET I OSLO, priority 2016, dated 2023)
Counter-ions that a name gives are not always drawn. Like-named read-outs stand apart in the source and are kept apart here.

Legend:
[1] = tested on: K. pneumoniae K66-45 (NDM-1); assay: Microbroth dilution MIC of carbapenem with/without inhibitor; assay type: cell-based
Description: (§1) • Plate bacterial strain(s) on appropriate media: • Gram-negative bacteria with ESBLs or carbapenemases: green agar plates with 100 mg/L ampicillin • Gram-negative bacteria without β-lactamases: green agar plates • Gram-positive bacteria (Staphylococci and Enterococci): blood agar plates • Incubate o.n. at 37° C. […] (Should be used within 15 min of preparation). • Dilute the 0.5 McFarland suspension 1:100 into MH broth. […] Plate 10 μl of the dilution on MH agar plates (×2). Incubate o.n. at 37° C., count the colonies and calculate the final CFU/ml inoculum in the plate by multiplying the average number of colonies with 10000 and divide by 2. The final inoculum should be between 3-7×10^5 CFU/ml. • Add 50 μl of the prepared bacterial suspension to each well in the microtiter plate except negative growth control. Preparation of Compounds/Antibiotics • Calculate the desired concentration-range and volume of the compounds/antibiotics in the assay. […] Dilute the stock solution in MH broth. Make subsequent 2-fold dilutions in MH broth of the desired concentrations if a concentration range is to be tested (remember the extra dilution factor in the assay plate). Always include extra volume for pipetting. Take into consideration stock solutions that are made in buffers that have an effect on bacterial growth (e.g. DMSO).

[2] = Solution stability on storage, measured indirectly by MIC; assay type: physicochemical; conditions: solution stored at 2-8° C.; MIC at 25 mg/L inhibitor
From the text: P. aeruginosa harboring VIM-2 and K. pneumonia bearing NDM-1 was used as two indicator strains.

[3] = tested on: human hepG2 cells; assay: In vitro toxicity in human hepG2 cells (AlamarBlue viability); assay type: cell-based
Description: For viability assays, cells were seeded in white 96-well Nunclon plates at a density of 20,000 cells/well and left overnight to adhere before experiments were conducted. Zn chelators dissolved in DMSO were added to white 96-well plates containing 20000 HepG2 cells/well at concentrations ranging from 1 to 1×10^−6 mM (max DMSO concentration never exceeded 1%) and incubated for 24 hours at 37° C. After 24 hours, AlamarBlue® cell viability reagent (Thermo Fisher, Carlsbad, USA) was added (10% final concentration) and incubated for 4 hours at 37° C.

[4] = tested on: M. morganii (OXA48+ NDM-1); assay: Microbroth dilution MIC of meropenem ± 25 mg/L inhibitor; assay type: cell-based
Description: (§2) • Plate bacterial strain(s) on appropriate media: • Gram-negative bacteria with ESBLs or carbapenemases: green agar plates with 100 mg/L ampicillin • Gram-negative bacteria without β-lactamases: green agar plates • Gram-positive bacteria (Staphylococci and Enterococci): blood agar plates • Incubate o.n. at 37° C. Day 2: Prepare the Bacterial Inoculum: • Prepare a 0.5 McFarland suspension of bacteria in 0.85% NaCl. (Should be used within 15 min of preparation). • Dilute the 0.5 McFarland suspension 1:100 into MH broth. Check the inoculum by diluting the prepared bacterial suspension 1:100 (10 μl bacterial suspension+990 μl 0.85% NaCl). Plate 10 μl of the dilution on MH agar plates (×2). Incubate o.n. at 37° C., count the colonies and calculate the final CFU/ml inoculum in the plate by multiplying the average number of colonies with 10000 and divide by 2. The final inoculum should be between 3-7×10^5 CFU/ml. • Add 50 μl of the prepared bacterial suspension to each well in the microtiter plate except negative growth control. Preparation of Compounds/Antibiotics • Calculate the desired concentration-range and volume of the compounds/antibiotics in the assay. […] Dilute the stock solution in MH broth. Make subsequent 2-fold dilutions in MH broth of the desired concentrations if a concentration range is to be tested (remember the extra dilution factor in the assay plate). Always include extra volume for pipetting. Take into consideration stock solutions that are made in buffers that have an effect on bacterial growth (e.g. DMSO).

[5] = tested on: K. pneumoniae (VIM); assay: as above; assay type: cell-based
Description: as §2

[6] = tested on: K. pneumoniae (NDM); assay: as above; assay type: cell-based; conditions: K. pneumoniae NDM (several strains)
Description: as §2

[7] = tested on: P. stuartii (NDM-1); assay: as above; assay type: cell-based
Description: as §2

[8] = tested on: K. pneumoniae (NDM-7); assay: as above; assay type: cell-based
Description: as §2

[9] = tested on: P. mirabilis (NDM-1); assay: as above; assay type: cell-based
Description: as §2

[10] = tested on: C. freundii (NDM); assay: as above; assay type: cell-based
Description: as §2

[11] = tested on: E. coli (VIM-1); assay: as above; assay type: cell-based
Description: as §2

[12] = tested on: E. cloacae (VIM); assay: as above; assay type: cell-based
Description: as §2

[13] = tested on: P. stuartii (NDM); assay: as above; assay type: cell-based
Description: as §2

[14] = tested on: C. freundii (NDM-1); assay: as above; assay type: cell-based
Description: as §2

[15] = tested on: K. pneumoniae K66-45; assay type: cell-based; conditions: inhibitor 25 mg/L; MEM 1 mg/L
Description: After plating and grown overnight at 37° C., only single colonies, ignoring any touching the edges of the plate, were counted.
10^9 CFU K66-45 (Mueller-Hinton broth, no selection) was plated and grown overnight, 37° C. Only single colonies, ignoring any touching the edges of the plate, were counted.

[16] = In vivo toxicity in healthy mice; design: species or system Balb/c mice; conditions: ± SEM
Description: Female Balb/c mice (4 weeks old, approximately 20 g, Charles River, L'Arbresle, France) acclimatized 4 days in the animal facility before initiation of experiments. […] Individual weights were followed four days a week. Relative weight was calculated as the ratio between the weight of the day and the weight of the first day. The protocol for experiments in mice was approved by the University of Lyon Animal Ethics Committee. Toxicity experiments were performed by Antineo (www.antineo.fr).

[17] = tested on: neurons; conditions: Canzoniero et al.; cited from earlier work
[18] = tested on: P. aeruginosa K34-7 (VIM-2); assay: Microbroth dilution MIC of carbapenem with/without inhibitor; assay type: cell-based; conditions: inhibitor 63 mg/L
Description: as §1

[19] = tested on: resistant gram-negative MBL-based bacteria; assay: MICx: adjuvant concentration giving carbapenem MIC ≤ 2 mg/L; assay type: cell-based; conditions: lowest concentration of compound X that results in a MIC value of ≤ 2 mg/L for carbapenem antibiotics
Description: as §1

[20] = tested on: P. aeruginosa 50808021 (No MBL); assay: Microbroth dilution MIC of meropenem with/without inhibitor; assay type: cell-based; conditions: inhibitor 63 mg/L
Description: as §1

[21] = tested on: P. aeruginosa 50692172 (NDM-1); assay: as above; assay type: cell-based; conditions: inhibitor 63 mg/L
Description: as §1

[22] = tested on: K. pneumoniae 50732159 (No MBL); assay: as above; assay type: cell-based; conditions: inhibitor 63 mg/L
Description: as §1

[23] = target: VIM-2 (Escherichia coli, UniProt Q5U7L7); assay type: biochemical; conditions: purified VIM-2, PD-10 column
Description: The eluent used was Chelex-treated HEPES 50 mM buffer, pH 7.5. […] In all experiments, 16 aliquots of 250 μL were taken from the PD-10 column runsout and enzyme activity was analysed. Enzyme activity was measured by adding Nitrocefin as a reporter substrate (final concentration of 50 μM).
To investigate if more extreme time-dependent and concentration-dependent conditions could restore enzyme activity, aliquots having final concentrations of 30 nM column-treated enzyme and 1000 μM Zn^2+ on ice and at room temperature over prolonged time.

C[C@@H](N)C(=O)N[C@H](C)C(=O)NCCc1ccc(NC(=O)c2ccc(CN(Cc3ccccn3)Cc3ccccn3)nc2)cc1 [Example 195, N-(4-(2-((R)-2-((R)-2-aminopropanamido)propanamido)ethyl)phenyl)-6-((bis(pyridin-2-ylmethyl)amino)methyl)nicotinamide hydrochloride]
MIC ([1]; Klebsiella pneumoniae, read-out: MIC of MEM in the presence of inhibitor): 0.125 µg/mL
storage time after which the activity was absent [2]: 8 months
storage time at which a loss of activity was observed [2]: 5 months
IC50 ([3]; Homo sapiens, HepG2, 24 h): > 1000 µM
MIC meropenem + 25 mg/L Example 195 [4]: 1 µg/mL
MIC meropenem + 25 mg/L Example 195 [5]: 0.125 µg/mL
MIC meropenem + 25 mg/L Example 195 [6]: 0.06 µg/mL
MIC meropenem + 25 mg/L Example 195 [7]: 0.125 µg/mL
MIC meropenem + 25 mg/L Example 195 [8]: <0.03 µg/mL
MIC meropenem + 25 mg/L Example 195 [9]: 0.125 µg/mL
MIC meropenem + 25 mg/L Example 195 [10]: 0.06 µg/mL
MIC meropenem + 25 mg/L Example 195 [11]: <0.03 µg/mL
MIC meropenem + 25 mg/L Example 195 [12]: <0.03 µg/mL
MIC meropenem + 25 mg/L Example 195 [13]: 0.25 µg/mL
MIC meropenem + 25 mg/L Example 195 [14]: 0.125 µg/mL
RF - no of colonies [15]: 163 colonies
Relative weight of mice ([16]; Day 1, treatment 4 mg/kg intraperitoneally): 100 ± 0%
Relative weight of mice ([16]; Day 8, treatment 8 mg/kg): 98 ± 5%
Relative weight of mice ([16]; Day 16, treatment 16 mg/kg): 103 ± 3%
Relative weight of mice ([16]; Day 22, treatment 32 mg/kg): 103 ± 3%
Relative weight of mice ([16]; Day 29, treatment 64 mg/kg): 106 ± 6%
Relative weight of mice ([16]; Day 36, treatment 120 mg/kg): 110 ± 8%
Relative weight of mice ([16]; Day 43, no injection, reporting): 110 ± 8%

c1ccc(CN(CCN(Cc2ccccn2)Cc2ccccn2)Cc2ccccn2)nc1 [TPEN, N,N,N′,N′-tetrakis(2-pyridylmethyl) ethylenediamine, reference compound]
EC50 [17]: ~5 µM
Meropenem activity in presence of inhibitor [18]: 1 mg/L
Meropenem activity in presence of inhibitor ([1]; inhibitor 63 mg/L, K. pneumoniae K66-45 NDM-1): ≤0.5 mg/L
MICx [19]: 15 µM
IC50 ([3]; human hepG2 cells, 24 hours, AlamarBlue, 8 replicates, read-out: IC50): 7.1 µM
IC50 ([3]; human hepG2 cells, read-out: IC50h): 7 µM
Meropenem activity in presence of inhibitor [20]: 64 mg/L
Meropenem activity in presence of inhibitor [21]: ≤0.5 mg/L
Meropenem activity in presence of inhibitor [22]: ≤0.064 mg/L
irreversibility of VIM-2 inhibition [23]: irreversibly inhibited
